# Reference: ChEMBL document CHEMBL3045833, “Synthesis and antifungal activity of novel 7-O-substituted pyridyl-4-methyl coumarin derivatives” (2013)
# Tests used:
# Assay type in all cases: functional
# Cryptococcus neoformans = assay: Antifungal activity against Cryptococcus neoformans assessed as growth inhibition after 72 hr by NCCLS microbroth dilution method
# Candida albicans [1] = assay: Antifungal activity against Candida albicans Y0109 assessed as growth inhibition after 24 hr by NCCLS microbroth dilution method; settings: Y0109, 24 h
# Candida tropicalis = assay: Antifungal activity against Candida tropicalis assessed as growth inhibition by NCCLS microbroth dilution method
# Kluyveromyces marxianus = assay: Antifungal activity against Kluyveromyces marxianus assessed as growth inhibition by NCCLS microbroth dilution method
# Candida albicans [2] = assay: Antifungal activity against Candida albicans SC5314 assessed as growth inhibition after 24 hr by NCCLS microbroth dilution method; settings: SC5314, 24 h
# Candida parapsilosis = assay: Antifungal activity against Candida parapsilosis assessed as growth inhibition by NCCLS microbroth dilution method; settings: Lodderomyces parapsilosis
# Trichophyton rubrum = assay: Antifungal activity against Trichophyton rubrum assessed as growth inhibition by NCCLS microbroth dilution method
# Aspergillus fumigatus = assay: Antifungal activity against Aspergillus fumigatus assessed as growth inhibition by NCCLS microbroth dilution method
Compound,MIC80 (Cryptococcus neoformans),MIC80 (Candida albicans [1]),MIC80 (Candida tropicalis),MIC80 (Kluyveromyces marxianus),MIC80 (Candida albicans [2]),MIC80 (Candida parapsilosis),MIC80 (Trichophyton rubrum),MIC80 (Aspergillus fumigatus)
Cc1cc(=O)oc2cc(Oc3ccc([N+](=O)[O-])cn3)ccc12,64 µg/mL,64 µg/mL,> 64 µg/mL,> 64 µg/mL,> 64 µg/mL,32 µg/mL,64 µg/mL,> 64 µg/mL
Cc1cc(=O)oc2cc(Oc3ccc(N)cn3)ccc12,> 64 µg/mL,16 µg/mL,> 64 µg/mL,> 64 µg/mL,> 64 µg/mL,32 µg/mL,32 µg/mL,> 64 µg/mL
Cc1cc(=O)oc2cc(Oc3ccc(NC(=O)C(F)(F)F)cn3)ccc12,32 µg/mL,0.25 µg/mL,16 µg/mL,32 µg/mL,0.25 µg/mL,1 µg/mL,16 µg/mL,> 64 µg/mL
Cc1cc(=O)oc2cc(Oc3ccc(NC(=O)C(C)(C)C)cn3)ccc12,32 µg/mL,4 µg/mL,32 µg/mL,16 µg/mL,4 µg/mL,32 µg/mL,1 µg/mL,> 64 µg/mL
Cc1cc(=O)oc2cc(Oc3ccc(NC(=O)CN(C)C)cn3)ccc12,16 µg/mL,16 µg/mL,1 µg/mL,32 µg/mL,32 µg/mL,32 µg/mL,16 µg/mL,> 64 µg/mL
Cc1cc(=O)oc2cc(Oc3ccc(NC(=O)C4CC4)cn3)ccc12,32 µg/mL,> 64 µg/mL,16 µg/mL,32 µg/mL,16 µg/mL,8 µg/mL,8 µg/mL,> 64 µg/mL
Cc1cc(=O)oc2cc(Oc3ccc(NC(=O)C4CCCCC4)cn3)ccc12,32 µg/mL,> 64 µg/mL,> 64 µg/mL,> 64 µg/mL,> 64 µg/mL,4 µg/mL,8 µg/mL,> 64 µg/mL

# Continued, values first:
MIC80 (Cryptococcus neoformans),MIC80 (Candida albicans [1]),MIC80 (Candida tropicalis),MIC80 (Kluyveromyces marxianus),MIC80 (Candida albicans [2]),MIC80 (Candida parapsilosis),MIC80 (Trichophyton rubrum),MIC80 (Aspergillus fumigatus),Compound
32 µg/mL,16 µg/mL,16 µg/mL,32 µg/mL,32 µg/mL,32 µg/mL,16 µg/mL,> 64 µg/mL,Cc1cc(=O)oc2cc(Oc3ccc(NC(=O)c4cccs4)cn3)ccc12
8 µg/mL,64 µg/mL,> 64 µg/mL,> 64 µg/mL,> 64 µg/mL,> 64 µg/mL,16 µg/mL,> 64 µg/mL,Cc1cc(=O)oc2cc(Oc3ccc(NC(=O)Cc4c[nH]c5ccccc45)cn3)ccc12
8 µg/mL,1 µg/mL,8 µg/mL,16 µg/mL,0.25 µg/mL,1 µg/mL,16 µg/mL,> 64 µg/mL,CC(=O)Nc1ccc(Oc2ccc3c(C)cc(=O)oc3c2)nc1
16 µg/mL,16 µg/mL,> 64 µg/mL,16 µg/mL,0.25 µg/mL,4 µg/mL,0.25 µg/mL,> 64 µg/mL,Cc1cc(=O)oc2cc(Oc3ccc(NC(=O)CC#N)cn3)ccc12
